Assay [1] deals with HDAC (HeLa cell extract). Briefly: Primary assay: deacetylase activity, HeLa cell extract as source of HDAC. Format: biochemical, human. The note with it: HeLa cell extract. The source says: Briefly, this assay relies on the release of radioactive acetate from a radioactively labelled histone fragment by the action of HDAC enzyme. Test compounds, which inhibit HDAC, reduce the yield of radioactive acetate. Signal (e.g., scintillation counts) measured in the presence and absence of a test compound provide an indication of that compound's ability to inhibit HDAC activity. Decreased activity indicates increased inhibition by the test compound.
The histone fragment was an N-terminal sequence from histone H4, and it was labelled with radioactively labelled acetyl groups using tritiated acetylcoenzyme A (coA) in conjunction with an enzyme which is the histone acetyltransferase domain of the transcriptional coactivator p300. […] The acetylated peptide was then separated from free acetyl coA by size exclusion chromatography on Sephadex G-15 (Sigma G-15-120), using distilled H2O as the mobile phase.
After purification of the radiolabelled histone fragment, it was incubated with a source of HDAC (e.g., an extract of HeLa cells (a rich source of HDAC), recombinantly produced HDAC1 or HDAC2) and any released acetate was extracted into an organic phase and quantitatively determined using scintillation counting. By including a test compound with the source of HDAC, that compound's ability to inhibit the HDAC was determined.
The HeLa cell extract was made from HeLa cells (ATCC Ref. No. CCL-2) by freeze-thawing three times in 60 mM TrisCl pH 8.0, 450 mM NaCl, 30% glycerol. Two cell volumes of extraction buffer were used, and particulate material was centrifuged out (20800 g, 4° C., 10 min). The supernatant extract having deacetylase activity was aliquotted and frozen for storage.
A source of HDAC (e.g., 2 μL of crude HeLa extract, 5 μL of HDAC1 or HDAC2; in elution buffer, as above) was incubated with 3 μL of radioactively labelled peptide along with appropriate dilutions of candidate compounds (1.5 μL) in a total volume of 150 μL of buffer (20 mM Tris pH 7.4, 10% glycerol). The reaction was carried out at 37° C. for one hour, after which the reaction was stopped by adding 20 μL of 1 M HCl/0.4 M sodium acetate. […] Radioactivity was measured using a Tri-Carb 2100TR Liquid Scintillation Analyzer (Packard).
Percent activity (% activity) for each test compound was calculated as: % activity={(S^C−B)/(S^o−B)}×100 wherein S^C denotes signal measured in the presence of enzyme and the compound being tested, S^o denotes signal measured in the presence of enzyme but in the absence of the compound being tested, and B denotes the background signal measured in the absence of both enzyme and compound being tested.

Assay [2] deals with HeLa cells. Briefly: Secondary assay: cell proliferation WST-1, HeLa. The class given is cell-based. To be noted: Homo sapiens, 48 h, read-out: Cell Proliferation Inhibition WST-1 (IC50 unless otherwise specified) HeLa. On the procedure:
Compounds with HDAC inhibition activity, as determined using the primary assay, were subsequently evaluated using secondary cell-based assays. The following cell lines were used:
HeLa—Human cervical adenocarcinoma cell line (ATCC ref. No. CCL-2).
Cells were plated in 96-well plates at 3-10×10^3 cells/well in 100 μL of culture medium. The following day, different concentrations of candidate compounds were added and the cells incubated at 37° C. for 48 h. Subsequently, 10 μL/well of WST-1 reagent was added and the cells reincubated for 1 hour. After the incubation time, absorbance was measured.
WST-1 is a tetrazolium salt which is cleaved to formazan dye by cellular enzymes. An expansion in the number of viable cells results in an increase in the overall activity of mitochondrial dehydrogenases in the sample. This augmentation in the enzyme activity leads to an increase in the amount of formazan dye formed, which directly correlates to the number of metabolically active cells in the culture. The formazan dye produced is quantified by a scanning multiwell spectrophotometer by measuring the absorbance of the dye solution at 450 nm wavelength (reference wavelength 690 nm).
Percent activity (% activity) in reducing the number of viable cells was calculated for each test compound as: % activity={(S^C−B)/(S^o−B)}×100 wherein S^C denotes signal measured in the presence of the compound being tested, S^o denotes signal measured in the absence of the compound being tested, and B denotes the background signal measured in blank wells containing medium only.
IC50 values were calculated using the software package Prism 3.0 (GraphPad software Inc., San Diego, Calif.), setting top value at 100 and bottom value at 0.
(In general: Formazan colour is commonly taken as a measure of viable cells.)

[3] abbreviates: read-out: HDAC Inhibition (IC50 unless otherwise specified) HeLa.
The mark [4] stands for this setting: comparative tables, no unit in cell, read-out: HeLa IC50.

Where a name gives a salt, the structure may show the parent alone. Read-outs that look alike come from different tables or passages of the source.

In the case of `CN(C)c1ccc(CC(=O)NCCCC(=O)NO)cc1` [PX082532, 4-(2-(4-Dimethylamino-phenyl)-acetylamino)-N-hydroxy-butyramide], the “HDAC Inhibition HeLa, percent” value in assay [1] (@ 1 μM) came out at 21% @ 1 μM.
For the compound `CN(C)c1ccc(C(=O)NCCCC(=O)NO)c2ccccc12` [PX082533], in assay [1] (@ 1 μM), the “HDAC Inhibition HeLa, percent” value is listed as 2% @ 1 μM. Moreover, the “percent HDAC inhibition at the stated concentration” value (“percent HDAC inhibition” for short) in assay [1] (comparative tables, @ 1 μM) is 2% @ 1 μM.
With `COc1ccc(NC(=O)CCCC(=O)NO)cc1` [PX082546, Pentanedioic acid hydroxyamide (4-methoxy-phenyl)-amide], the “HDAC Inhibition HeLa, percent” value in assay [1] (@ 1 μM) is given as 36% @ 1 μM.
`CC(C)c1ccc(NC(=O)CCCC(=O)NO)cc1` [PX082548, Pentanedioic acid hydroxyamide (4-isopropyl-phenyl)-amide]: the “HDAC Inhibition HeLa, percent” value in assay [1] (@ 1 μM) is 41% @ 1 μM.
Take `COc1ccc(NC(=O)CCCC(=O)NO)cc1OC` [PX082549, Pentanedioic acid (3,4-dimethoxy-phenyl)-amide hydroxyamide]: the “HDAC Inhibition HeLa, percent” value in assay [1] (@ 1 μM) is listed as 43% @ 1 μM.
Take `CN(C)c1ccc(/C=C/C(=O)NCCCC(=O)NO)cc1` [PX083447, 4-(3-(4-Dimethylamino-phenyl)-acryoylamino)-N-hydroxy-butyramide]: the “HDAC Inhibition HeLa, percent” value in assay [1] (@ 1 μM) was 15% @ 1 μM.
On to `O=C(/C=C/C=C/c1ccccc1)NCCC(=O)NO` [PX083448], for which the IC50 in assay [1] (setting [3]) and in assay [1] (setting [4]) was above 1 µM throughout.
On to `O=C(/C=C/c1ccc([N+](=O)[O-])cc1)NCCCC(=O)NO` [PX083803, N-Hydroxy-4-(3-4-(nitro-phenyl)-acryoylamino)-butyramide], for which the “HDAC Inhibition HeLa, percent” value in assay [1] (@ 1 μM) worked out at 15% @ 1 μM.
The same measure, in the same setting: with `O=C(/C=C/c1ccc(C(F)(F)F)cc1)NCCCC(=O)NO` [PX083804, N-Hydroxy-4-(3-4-(trifluoromethyl-phenyl)-acryoylamino)-butyramide] the figure was 14% @ 1 μM; with `O=C(/C=C/c1ccccc1)NCCC(=O)NO` [PX083806], 19% @ 1 μM; with `O=C(/C=C/c1ccc([N+](=O)[O-])cc1)NCCC(=O)NO` [PX083807, N-(2-Hydroxycarbamoyl-ethyl)-3-(4-nitro-phenyl)-acryamide], 9% @ 1 μM.
Turning to `O=C(/C=C/C=C/c1ccccc1)NCCCC(=O)NO` [PX083808], the IC50 is 20 µM in assay [1] (setting [3]) and above 20 µM in assay [1] (setting [4]).
Consider `COc1ccc(C(=O)NCCCCC(=O)NO)cc1` [PX089048, N-(4-Hydroxycarbamoyl-butyl)-4-methoxy-benzamide], for which the “HDAC Inhibition HeLa, percent” value in assay [1] (@ 1 μM) stood at 34% @ 1 μM.
With `O=C(CCCCNC(=O)c1ccccc1)NO` [PX089049, N-(4-Hydroxycarbamoyl-butyl)-benzamide], the IC50 in assay [1] (setting [3]) is above 1 µM.
In the case of `CN(C)c1ccc(C(=O)NCCCCCC(=O)NO)cc1` [PX089274, 4-Dimethylamino-N-(5-hydroxycarbamoyl-pentyl)-benzamide], the IC50 was 0.109 µM in assay [1] (setting [3]); 0.11 µM in assay [1] (comparative tables, read-out: HeLa IC50); 4.4 µM in assay [2].
Consider `O=C(/C=C/c1ccc(C(F)(F)F)cc1)NCCC(=O)NO` [PX089283, N-(2-Hydroxycarbamoyl-ethyl)-3-(4-trifluoromethyl-phenyl)-acryamide], for which the “HDAC Inhibition HeLa, percent” value in assay [1] (@ 1 μM) worked out at 21% @ 1 μM.
`O=C(CC(=O)NCCc1ccccc1)NO` [PX099268]: the “HDAC Inhibition HeLa, percent” value in assay [1] (@ 10 μM) is on record as 18% @ 10 μM.
For the compound `CN(C)c1ccc(C=CC(=O)NCCCCCC(=O)NO)cc1` [PX105533], the IC50 in assay [1] (setting [4]) was determined as 0.018 µM.
With `CN(CCCC(=O)NO)C(=O)/C=C/C=C/c1ccccc1` [PX105668], in assay [1] (setting [3]), the IC50 was above 10 µM.
Take `COc1ccc(/C=C/C=C/C(=O)NCCCC(=O)NO)cc1` [PX105670]: the “HDAC Inhibition HeLa, percent” value in assay [1] (@ 1 μM) is reported as 29% @ 1 μM.
As to `O=C(/C=C/C=C/c1ccc(Br)cc1)NCCCC(=O)NO` [PX105816, (2E)(4E)-5-(4-Bromophenyl)penta-2,4-dienoic acid (3-hydroxycarbamoylpropyl)amide], the “HDAC Inhibition HeLa, percent” value in assay [1] (@ 500 nM) is on record as 20% @ 500 nM.
Turning to `O=C(/C=C/C=C/c1ccccc1)NCCCCC(=O)NO` [PX105832, (2E)(4E)-5-Phenylpenta-2,4-dienoic acid (4-hydroxycarbamoyl-butyl)amide], the IC50 in assay [1] (setting [3]) and in assay [1] (setting [4]) was 0.438 µM each time.
In the case of `O=C(/C=C/C=C/c1ccc(Cl)cc1)NCCCC(=O)NO` [PX105845, (2E)(4E)-5-(4-Chlorophenyl)-penta-2,4-dienoic acid (3-hydroxycarbamoylpropyl)-amide], the “HDAC Inhibition HeLa, percent” value in assay [1] (@ 500 nM) was 22% @ 500 nM.
The same measure, in the same setting: with `O=C(/C=C\C=C\c1ccc(Br)cc1)NCCCC(=O)NO` [PX105846, (2Z)(4E)-5-(4-Bromophenyl)penta-2,4-dienoic acid (3-hydroxycarbamoyl-propyl)amide] the figure was 46% @ 500 nM.
Still for that read-out and setting: the same measure for `Nc1nonc1C(=O)NCCCCCC(=O)NO` [PX106519, 4-Aminofurazan-3-carboxylic acid (5-hydroxycarbamoylpentyl)amide]: 46% @ 500 nM.
On to `CC(/C=C/c1ccccc1)=C\C(=O)NCCCCCC(=O)NO` [PX106526, (2E,4E)-3-Methyl-5-phenylpenta-2,4-dienoic acid (5-hydroxycarbamoylpentyl)-amide], for which the IC50 in assay [2] turned out to be 2.1 µM.
Take `O=C(/C=C/c1ccccn1)NCCCCCC(=O)NO` [PX106528, (E)-N-(5-Hydroxycarbamoylpentyl)-3-pyridin-2-yl-acrylamide oxalate]: in assay [1] (@ 500 nM), the “HDAC Inhibition HeLa, percent” value was determined as 67% @ 500 nM.
Take `O=C(CCCCCNC(=O)CCCc1ccccc1)NO` [PX116210, N-Hydroxy-6-[(4-phenylbutanoyl)amino]hexanamide]: the “HDAC Inhibition HeLa, percent” value in assay [1] (@ 500 nM) was 19% @ 500 nM.
On to `O=C(CCCCCNC(=O)c1ccoc1)NO` [PX116219, Furan-3-carboxylic acid (5-hydroxycarbamoyl-pentyl)-amide], for which the “HDAC Inhibition HeLa, percent” value in assay [1] (@ 500 nM) is reported as 26% @ 500 nM.
On to `O=C(/C=C/C=C/c1ccco1)NCCCCCC(=O)NO` [PX116230], for which the “HDAC Inhibition (IC50 unless otherwise specified) HeLa” value in assay [1] is on record as “insoluble”.
Consider `O=C(/C=C/c1cccnc1)NCCCCCC(=O)NO` [PX116231, E-N-(5-Hydroxycarbamoyl-pentyl)-3-pyridin-3-yl-acrylamide oxalate], for which, in assay [1] (@ 500 nM), the “HDAC Inhibition HeLa, percent” value turned out to be 51% @ 500 nM.
Same read-out and setting: with `O=C(/C=C/c1ccc(NC(=O)c2ccc3ccccc3c2)cc1)NO` [PX116246, Naphthalene-2-carboxylic acid [4-(2-hydroxycarbamoyl-vinyl)-phenyl]-amide] the figure was 52% @ 500 nM.
As for `O=C(/C=C/c1ccc(NC(=O)c2ccccc2)cc1)NO` [PX117231, N-[4-(2-Hydroxycarbamoyl-vinyl)-phenyl]-benzamide], in assay [1] (@ 500 nM), the “HDAC Inhibition HeLa, percent” value is recorded as 72% @ 500 nM. Moreover, the “percent HDAC inhibition” value in assay [1] (comparative tables, @ 1 μM) was found to be 72% @ 1 μM.
`O=C(CCc1ccc(NC(=O)c2ccccc2)cc1)NO` [PX117232, N-[4-(2-Hydroxycarbamoyl-ethyl)-phenyl]-benzamide]: in assay [1] (@ 500 nM), the “HDAC Inhibition HeLa, percent” value is 43% @ 500 nM. Further, the “percent HDAC inhibition” value in assay [1] (comparative tables, @ 1 μM) turned out to be 43% @ 1 μM.
With `O=C(CCCCCCC(=O)Nc1ccccc1)NO` [SAHA, Suberoylanilide Hydroxamic Acid, reference compound], in assay [2], the IC50 was 2.2 µM.

For the origin of these results see patent US7569724B2, “Carbamic acid compounds comprising an amide linkage as HDAC inhibitors” (Topotarget UK Limited, priority 2000, dated 2009).
